The results in this text go back to patent US9150592B2, “Heterocyclic nuclear hormone receptor modulators” (AbbVie Inc., priority 2012, dated 2015).

Test [1] addresses T1, Glucocorticoid Receptor (GR) (Homo sapiens, UniProt P04150).
T1 construct: purchased Invitrogen P2893
T1 sequence (P04150 1-777): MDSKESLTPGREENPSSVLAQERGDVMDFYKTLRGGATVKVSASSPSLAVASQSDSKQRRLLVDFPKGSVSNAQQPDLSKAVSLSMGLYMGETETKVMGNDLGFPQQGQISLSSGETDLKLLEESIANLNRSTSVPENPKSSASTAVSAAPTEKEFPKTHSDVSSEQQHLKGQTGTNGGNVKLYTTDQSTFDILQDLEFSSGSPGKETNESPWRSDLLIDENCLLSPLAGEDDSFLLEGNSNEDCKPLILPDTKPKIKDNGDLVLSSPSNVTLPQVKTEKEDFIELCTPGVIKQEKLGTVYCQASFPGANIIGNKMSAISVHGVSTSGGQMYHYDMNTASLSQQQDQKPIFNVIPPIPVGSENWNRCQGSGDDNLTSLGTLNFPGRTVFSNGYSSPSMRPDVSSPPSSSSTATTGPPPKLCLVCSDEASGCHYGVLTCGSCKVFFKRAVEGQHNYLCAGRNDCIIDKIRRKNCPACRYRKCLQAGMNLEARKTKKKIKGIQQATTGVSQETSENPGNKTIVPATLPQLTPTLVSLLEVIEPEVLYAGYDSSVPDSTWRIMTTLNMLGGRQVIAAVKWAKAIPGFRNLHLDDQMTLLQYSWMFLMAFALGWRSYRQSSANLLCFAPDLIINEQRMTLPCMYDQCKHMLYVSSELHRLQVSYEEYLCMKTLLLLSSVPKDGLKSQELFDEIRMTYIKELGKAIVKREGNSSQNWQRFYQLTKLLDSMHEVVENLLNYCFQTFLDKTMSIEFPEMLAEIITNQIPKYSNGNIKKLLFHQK
Nature of the test: GR Fluorescence Polarization Assay (PolarScreen Glucocorticoid Receptor Competitor Assay, Red). As to conditions: IC50 class ranges, read-out: GR binding. The procedure, abridged:
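Competitive fluorescence-polarization assay using a red fluorescent glucocorticoid tracer with human GR in kit buffer. Compounds serially diluted 1:4 in DMSO, incubated with tracer and GR overnight at 4° C, then polarization read.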
On the technique in general: Fluorescence polarisation rises when a labelled molecule tumbles more slowly, as on binding a larger partner.

The subject of test [2] is IL-6 in A549 cells stimulated with IL-1β. Nature of the test: A549 Cell Assay to Measure Inflammation Markers (inhibition of IL-1β-induced IL-6). Format: cell-based. Particulars: intrinsic activity, Emax class ranges; for Emax: Homo sapiens, A549, A549 Cell Assay to Measure Inflammation Markers. The procedure, abridged: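 Compound pre-incubated with A549 cells 1 h at 37 °C, then stimulated with IL-1β (1 ng/mL final, 0.1% DMSO). Supernatant IL-6 quantified by MSD immunoassay after a further incubation. IC50 and Emax derived.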

Molecules are shown by their SMILES.

By Emax is commonly meant the greatest response seen or fitted, relative to the assay's reference. As for `CCn1nc(-c2ccccn2)c2c1NCCSC2c1ccc(C(=O)Nc2ccnn2C)cc1C` (stereo not drawn) [S.1, 4-(1-ethyl-3-(pyridin-2-yl)-4,6,7,8-tetrahydro-1H-pyrazolo[3,4-e][1,4]thiazepin-4-yl)-3-methyl-N-(1-methyl-1H-pyrazol-5-yl)benzamide], the IC50 in test [1] is less than 0.1 µM. Further, the maximal response (Emax) in test [2] was more than 70%.
As to `Cc1cc(C(F)(F)F)ccc1C1SC(C)(C)CNc2c1c(C)nn2C` (stereo not drawn) [D.61], the IC50 in test [1] is less than 0.1 µM. Further, in test [2], the maximal response (Emax) was less than 50%.
For `Cc1ccc(Br)cc1C1SCCNc2c1c(-c1ccccn1)nn2C` (stereo not drawn) [D.27, 4-(5-bromo-2-methyl-phenyl)-1-methyl-3-(2-pyridyl)-4,6,7,8-tetrahydropyrazolo[3,4-e][1,4]thiazepine] the same measures were less than 0.1 µM and less than 50%.
As for `Cc1ncccc1NC(=O)c1ccc(C2SCCNc3c2c(-c2ccccn2)nn3C)cc1` (stereo not drawn) [F.3], the IC50 in test [1] lay within 1 to 10 µM. Moreover, the maximal response (Emax) in test [2] was less than 50%.
For the compound `CCn1nc(-c2ccccn2)c2c1NCCCC2c1ccc(C(=O)Nc2cccnc2C)cc1C` (stereo not drawn) [F.7], in test [1], the IC50 is less than 0.1 µM. Also, the maximum response (Emax) in test [2] was more than 70%.
For `Cn1nc(-c2cccs2)c2c1NCCSC2c1ccc(Cl)cc1Cl` (stereo not drawn) [D.101] the same measures were less than 0.1 µM and less than 50%.
For `Cc1cc(C#N)ccc1C1SCCNc2c1c(-c1ccccn1)nn2C` (stereo not drawn) [G.8, 3-methyl-4-(1-methyl-3-(pyridin-2-yl)-4,6,7,8-tetrahydro-1H-pyrazolo[3,4-e][1,4]thiazepin-4-yl)benzonitrile] the same measures were less than 0.1 µM and more than 60%.
As for `Cc1ccc(Cl)cc1C1SCCNc2c1c(-c1ccccn1)nn2C` (stereo not drawn) [D.40], the IC50 in test [1] was less than 0.1 µM. In addition, the Emax in test [2] is less than 50%.
Take `Cn1nc(-c2ccccn2)c2c1NCCSC2c1ccc(Cl)cc1F` (stereo not drawn) [D.103]: the IC50 in test [1] was less than 0.1 µM. This compound also gave a maximum response (Emax) in test [2] of less than 50%.
For the compound `Cc1cc(C#CCO)ccc1[C@@H]1SC[C@@H](C)Nc2c1c(-c1ccccn1)nn2C` (single isomer, unassigned) [M.70, 3-(4-(1,7-dimethyl-3-(pyridin-2-yl)-4,6,7,8-tetrahydro-1H-pyrazolo[3,4-e][1,4]thiazepin-4-yl)-3-methylphenyl)prop-2-yn-1-ol], in test [1], the IC50 is less than 0.1 µM. The same compound gave a maximal effect (Emax) in test [2] of less than 50%.
Take `CC(C)c1nn(C)c2c1C(c1ccc(Cl)cc1Cl)SCCN2` (stereo not drawn) [D.84]: in test [1], the IC50 was in the range of 0.1 to 1 µM. For the same compound, the Emax in test [2] is less than 50%.
For `Cc1ncccc1NC(=O)c1ccc(C2SC(C)(C)CNc3c2c(C)nn3C)c(Cl)c1` (single isomer, unassigned) [M.9, 3-chloro-N-(2-methylpyridin-3-yl)-4-(1,3,6,6-tetramethyl-4,6,7,8-tetrahydro-1H-pyrazolo[3,4-e][1,4]thiazepin-4-yl)benzamide], in test [1], the IC50 was 0.1 to 1 µM. In addition, the “A549 Emax” value in test [2] (A549 Cell Assay to Measure Inflammation Markers) was “D (a compound with Emax<50%)”.
